From patent US9266834B2, “1, 4-disubstituted 3-cyano-pyridone derivatives and their use as positive allosteric modulators of MGLUR2-receptors” (JANSSEN PHARMACEUTICALS, INC., priority 2006, dated 2016) come the findings set out here.

The target of one data set is T1, human mGluR2 receptor (Homo sapiens, UniProt Q14416).
T1 construct: expressed in transfected cells; host or cells: CHO cells (membrane preparation)
Nature of the data set: [35S]GTPγS binding assay (GTPγS-PAM): positive allosteric modulation in presence of glutamate at EC25, membranes from transfected CHO cells. Particulars: in presence of mGluR2 agonist glutamate at predetermined EC25 concentration, averages of duplicate values of 11-concentration response curves, read-out: GTPgS - hR2 PAM pEC50 (converted). It is filed as biochemical. A digest of the protocol:
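Potentiation was read as filter-retained [35S]GTPγS (0.1 nM final, 30 min, 30° C.) after a 30 min, 30° C. preincubation of human mGluR2 CHO membranes (15 μg/well) with EC25 glutamate and 11 modulator concentrations spanning 0.3 nM-50 μM. The buffer was 50 mM HEPES pH 7.4, NaCl, MgCl2, 50 μM GDP and saponin. Cold 10 μM GTP defined nonspecific binding; data were fitted by a four-parameter logistic.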
(In general: Binding of GTPγS marks nucleotide exchange on a G protein.)

T1 sequence (Q14416 19-872): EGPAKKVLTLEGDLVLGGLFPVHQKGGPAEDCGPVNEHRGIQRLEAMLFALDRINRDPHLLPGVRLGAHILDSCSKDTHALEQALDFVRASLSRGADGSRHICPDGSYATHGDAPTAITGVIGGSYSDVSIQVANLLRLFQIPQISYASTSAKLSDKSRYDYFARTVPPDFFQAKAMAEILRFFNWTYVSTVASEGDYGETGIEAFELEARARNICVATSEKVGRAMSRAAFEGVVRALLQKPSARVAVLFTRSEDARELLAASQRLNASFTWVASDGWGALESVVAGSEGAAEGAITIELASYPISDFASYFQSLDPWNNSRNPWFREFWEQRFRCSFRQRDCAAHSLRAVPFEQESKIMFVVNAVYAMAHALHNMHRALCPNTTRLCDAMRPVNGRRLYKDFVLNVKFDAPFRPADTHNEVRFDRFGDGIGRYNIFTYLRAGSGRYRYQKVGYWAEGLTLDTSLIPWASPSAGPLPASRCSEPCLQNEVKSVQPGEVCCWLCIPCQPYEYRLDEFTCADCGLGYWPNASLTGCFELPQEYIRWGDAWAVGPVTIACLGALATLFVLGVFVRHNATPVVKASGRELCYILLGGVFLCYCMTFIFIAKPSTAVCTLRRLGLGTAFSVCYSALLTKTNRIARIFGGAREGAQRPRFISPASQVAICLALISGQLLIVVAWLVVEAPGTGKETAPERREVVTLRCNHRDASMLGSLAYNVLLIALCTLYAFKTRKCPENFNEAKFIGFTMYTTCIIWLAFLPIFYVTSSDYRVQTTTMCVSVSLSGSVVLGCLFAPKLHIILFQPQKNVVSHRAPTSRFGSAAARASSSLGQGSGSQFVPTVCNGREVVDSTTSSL

A word on the melting point: it is the temperature of the solid-liquid transition. On to `N#Cc1c(-c2ccc(OC(F)(F)F)cc2)ccn(CC2CCCC2)c1=O` [1-007], for which the melting point worked out at 159 °C. For the same compound, at human mGluR2 receptor, the EC50 was 398 nM. `N#Cc1c(-c2cccs2)ccn(CC2CCCCC2)c1=O` [1-008] registered a melting point of 148 °C. Moreover, at human mGluR2 receptor, the EC50 was 251 nM. `N#Cc1c(-c2ccccc2)ccn(CC2CCCCC2)c1=O` [1-009] showed a melting point of 149 °C. Further, on human mGluR2 receptor, the EC50 is 1580 nM. In turn, `COc1ccccc1-c1ccn(CC2CCCCC2)c(=O)c1C#N` [1-011] registered a melting point of 60 °C. The EC50 on human mGluR2 receptor was 2000 nM. On to `COc1ccc(-c2ccn(CC3CCC(C)CC3)c(=O)c2C#N)cc1` (stereo not shown) [1-013], for which the melting point worked out at 128 °C. For the same compound, the EC50 at human mGluR2 receptor was 126 nM. For `CC1CCC(Cn2ccc(-c3ccc(OC(F)(F)F)cc3)c(C#N)c2=O)CC1` (stereo not shown) [1-014], in that order: 143 °C and 100 nM. Take `Cc1ccc(Cn2ccc(-c3ccco3)c(C#N)c2=O)cc1` [1-018]: the melting point turned out to be 155 °C. In addition, the EC50 on human mGluR2 receptor was 2510 nM. With `Cc1ccc(Cn2ccc(-c3cccs3)c(C#N)c2=O)cc1` [1-019], the melting point amounted to 118 °C. The EC50 on human mGluR2 receptor is 794 nM. Take `COc1ccc(-c2ccn(Cc3ccc(C(F)(F)F)cc3)c(=O)c2C#N)cc1` [1-024]: the melting point was 181 °C. The EC50 on human mGluR2 receptor is 126 nM.

As for `N#Cc1c(-c2ccccc2)ccn(Cc2cccc(OC(F)(F)F)c2)c1=O` [1-030], the melting point is 153 °C. The EC50 at human mGluR2 receptor is 316 nM. The compound `N#Cc1c(-c2ccc(CN3CCCCC3)cc2)ccn(Cc2ccc(OC(F)(F)F)cc2)c1=O` [1-031] had a melting point of 167 °C. Besides, the EC50 at human mGluR2 receptor was 2510 nM.

For the compound `N#Cc1c(-c2ccc(N3CCOCC3)cc2)ccn(Cc2ccc(OC(F)(F)F)cc2)c1=O` [1-032], the melting point amounted to 190 °C. Besides, the EC50 on human mGluR2 receptor is 794 nM. In the same order, the values of `N#Cc1c(-c2ccc(CN3CCOCC3)cc2)ccn(Cc2ccc(OC(F)(F)F)cc2)c1=O` [1-033] are 97 °C and 2510 nM.

The compound `C[C@@H]1CN(Cc2ccc(-c3ccn(Cc4ccc(OC(F)(F)F)cc4)c(=O)c3C#N)cc2)C[C@H](C)O1` [1-035] returned a melting point of 136 °C. For the same compound, at human mGluR2 receptor, the EC50 is 794 nM. In the case of `N#Cc1c(-c2ccc(OCCN3CCOCC3)cc2)ccn(Cc2ccc(OC(F)(F)F)cc2)c1=O` [1-037], the melting point was found to be 184 °C. The EC50 at human mGluR2 receptor was 2000 nM.

The compound `CCCn1ccc(-c2cccs2)c(C#N)c1=O` [1-050] showed a melting point of 135 °C.

Consider `CC(C)CCn1ccc(-c2ccccc2)c(C#N)c1=O` [1-084], for which the melting point was determined as 142 °C.

Consider `CC(C)CCn1ccc(-c2ccc(CO)cc2)c(C#N)c1=O` [1-098], for which the melting point came to 145 °C. The same measure, in the same setting: next, `CNC(=O)COc1ccc(-c2ccn(CCC(C)C)c(=O)c2C#N)cc1` [1-127]: 156 °C; `CC(=O)NCc1cccc(-c2ccn(CCC(C)C)c(=O)c2C#N)c1` [1-178]: 157 °C; `CC(C)CCn1ccc(-c2ccc(C(=O)NCc3ccncc3)cc2)c(C#N)c1=O` [1-213]: 96 °C. `CC(C)CCn1ccc(-c2ccc(CN3CCOCC3)cc2)c(C#N)c1=O` [1-229] returned a melting point of 148 °C. For `CC(C)CCn1ccc(-c2ccc(-n3ccnc3)cc2)c(C#N)c1=O` [1-235], the melting point is 151 °C.

Compound `CC(C)CCn1ccc(-c2ccc(CCC(=O)O)cc2)c(C#N)c1=O` [1-240] came in with a melting point of 169 °C. Take `CC(C)CCn1ccc(OCCOCc2ccccc2)c(C#N)c1=O` [1-281]: the melting point turned out to be 83 °C.

As to `CC(C)CCn1ccc(OCCN2CCN(c3ccccn3)CC2)c(C#N)c1=O` [2-036], the melting point amounted to 159 °C. Take `CC(C)CCn1ccc(N2CCC(OCc3cccc(C(F)(F)F)c3)CC2)c(C#N)c1=O` [4-020]: at human mGluR2 receptor, the EC50 was 126 nM.

With `CCOc1ccccc1OC1CCN(c2ccn(CCC(C)C)c(=O)c2C#N)CC1` [4-021], the EC50 at human mGluR2 receptor was 200 nM. On the same count and under the same terms, next, `CC(C)CCn1ccc(N2CCC(OCc3ccc(OC(F)(F)F)cc3)CC2)c(C#N)c1=O` [4-022]: 50.1 nM. For `CC(C)CCn1ccc(N2CCCC(Nc3ccccc3)C2)c(C#N)c1=O` (stereo not shown) [4-023], the EC50 at human mGluR2 receptor is 5010 nM.

As to `CC(C)CCn1ccc(N2CCC(NCc3cccc(C(F)(F)F)c3)CC2)c(C#N)c1=O` [4-024], on human mGluR2 receptor, the EC50 was 6310 nM. `CC(C)CCn1ccc(N2CCC(N(C)Cc3ccccc3)CC2)c(C#N)c1=O` [4-026]: the EC50 on human mGluR2 receptor is 1580 nM.

Regarding `CC(C)CCn1ccc(N2CCC(N(C)Cc3cccc(C(F)(F)F)c3)CC2)c(C#N)c1=O` [4-028], on human mGluR2 receptor, the EC50 is 100 nM.

For `CC(C)CCn1ccc(N2CCC(CN(C)Cc3ccc(F)cc3)CC2)c(C#N)c1=O` [4-030], the EC50 on human mGluR2 receptor is 1260 nM. In the case of `CC(C)CCn1ccc(N2CCC(N(C)CCc3cccc(C(F)(F)F)c3)CC2)c(C#N)c1=O` [4-032], the EC50 at human mGluR2 receptor is 398 nM. `CC(C)CCn1ccc(N2CCC(n3ccc4ccccc43)CC2)c(C#N)c1=O` [4-035]: the EC50 at human mGluR2 receptor is 100 nM. For the compound `CC(C)CCn1ccc(N2CCC(c3noc(-c4ccccc4)n3)CC2)c(C#N)c1=O` [4-041], at human mGluR2 receptor, the EC50 was 126 nM. The same measure, in the same setting: next, `CC(C)CCn1ccc(N2CCC(c3ccccc3)(N3CCOCC3)CC2)c(C#N)c1=O` [4-044]: 2510 nM; `COC1(c2ccccc2)CCN(c2ccn(CCC(C)C)c(=O)c2C#N)CC1` [4-045]: 126 nM. As to `N#Cc1c(N2CCC(c3ccccc3)CC2)ccn(CC2CC2)c1=O` [4-047, 3-cyano-1-cyclopropylmethyl-4-(4-phenyl-piperidin-1-yl)-pyridine-2(1H)-one], the melting point was 128 °C. For `N#Cc1c(N2CCC(c3ccccc3)CC2)ccn(CC2CCCCO2)c1=O` (stereo not shown) [4-048], the EC50 on human mGluR2 receptor was 2000 nM. On to `N#Cc1c(N2CCC(N3CCc4ccccc4C3)CC2)ccn(Cc2ccc(OC(F)(F)F)cc2)c1=O` [4-051], for which the EC50 at human mGluR2 receptor was 501 nM.

With `Cc1cc(OCC2CCN(c3ccn(Cc4ccc(OC(F)(F)F)cc4)c(=O)c3C#N)CC2)ccn1` [4-052], the EC50 at human mGluR2 receptor was 631 nM. Regarding `Cc1ccc(C2(O)CCN(c3ccn(Cc4ccc(OC(F)(F)F)cc4)c(=O)c3C#N)CC2)cn1` [4-053], at human mGluR2 receptor, the EC50 is 3160 nM.

On to `CN(Cc1ccccc1)C1CCN(c2ccn(Cc3ccc(F)cc3)c(=O)c2C#N)CC1` [4-056], for which the EC50 at human mGluR2 receptor was 5010 nM.

For the compound `CN(Cc1cccc(C(F)(F)F)c1)C1CCN(c2ccn(Cc3ccc(F)cc3)c(=O)c2C#N)CC1` [4-058], at human mGluR2 receptor, the EC50 is 251 nM. Take `N#Cc1c(N2CCC(O)(c3cccnc3)CC2)ccn(Cc2ccc(OC(F)(F)F)cc2)c1=O` [4-063]: the EC50 at human mGluR2 receptor was 5010 nM. With `CN(Cc1cccc(C(F)(F)F)c1)C1CCN(c2ccn(CCOc3ccccc3)c(=O)c2C#N)CC1` [4-065], on human mGluR2 receptor, the EC50 was 31.6 nM. In the case of `N#Cc1c(N2CCC(c3ccccc3)CC2)ccn(CCOc2ccccc2)c1=O` [4-066], on human mGluR2 receptor, the EC50 was 31.6 nM.

As for `CC(C)CCn1ccc(N2CCc3ccccc3C2)c(C#N)c1=O` [5-003], the EC50 on human mGluR2 receptor was 251 nM. Still for that read-out and setting: next, `CC(C)CCn1ccc(N2C[C@@H]3C[C@H]2CN3Cc2ccccc2)c(C#N)c1=O` [5-004]: 5010 nM; `CC(C)CCn1ccc(C2CCN(Cc3ccccc3)C2)c(C#N)c1=O` (stereo not shown) [5-007]: 1260 nM; `CC(C)CCn1ccc(-c2ccc3c(c2)CCN3)c(C#N)c1=O` [5-014]: 2000 nM. Same read-out and setting: next, `CC(=O)N1CCc2cc(-c3ccn(CCC(C)C)c(=O)c3C#N)ccc21` [5-015]: 1580 nM; `CC(C)CCn1ccc(-c2ccc3[nH]ccc3c2)c(C#N)c1=O` [5-016]: 251 nM; `CC(C)CCn1ccc(-c2cccc3[nH]ccc23)c(C#N)c1=O` [5-017]: 794 nM. On to `CC(C)CCn1ccc(-c2ccc3c(ccn3-c3ccccc3)c2)c(C#N)c1=O` [5-019], for which the EC50 on human mGluR2 receptor is 50.1 nM. On to `CC(C)CCn1ccc(-c2ccc3[nH]ncc3c2)c(C#N)c1=O` [5-021], for which the EC50 at human mGluR2 receptor is 1580 nM. As for `CCCCn1ccc(-c2ccc3c(cnn3Cc3ccccn3)c2)c(C#N)c1=O` [5-023], the EC50 at human mGluR2 receptor is 794 nM. `CC(C)CCn1ccc(-c2ccc3c(cnn3Cc3ccncc3)c2)c(C#N)c1=O` [5-025]: at human mGluR2 receptor, the EC50 was 398 nM. The same measure, in the same setting: next, `Cc1c(-c2ccn(CCC(C)C)c(=O)c2C#N)cnn1-c1ccccc1` [5-027]: 316 nM; `Cc1nc(-c2ccccc2)sc1-c1ccn(CCC(C)C)c(=O)c1C#N` [5-028]: 316 nM. With `CC(C)CCn1ccc(-n2ncc3ccccc32)c(C#N)c1=O` [5-029], the melting point came to 234 °C. Consider `CC(C)CCn1ccc(N2CCOc3ccccc32)c(C#N)c1=O` [5-030], for which the EC50 at human mGluR2 receptor is 6310 nM.

As to `COc1cc2c(cc1OC)CN(c1ccn(CCC(C)C)c(=O)c1C#N)CC2` [5-032], at human mGluR2 receptor, the EC50 is 1260 nM. For `CC(C)CCn1ccc(N2CCC3(CCc4ccccc43)CC2)c(C#N)c1=O` [5-033], the EC50 at human mGluR2 receptor is 39.8 nM. On to `CC(C)CCn1ccc(N2CCC3(CCN(c4ncccn4)CC3)CC2)c(C#N)c1=O` [5-034], for which the EC50 at human mGluR2 receptor was 398 nM.

In the case of `CC(C)CCn1ccc(N2CCC3(CC2)COc2ccccc2O3)c(C#N)c1=O` [5-036], the EC50 at human mGluR2 receptor is 251 nM.

Consider `CC(C)CCn1ccc(N2CCc3c(sc4ccc(Cl)cc34)C2)c(C#N)c1=O` [5-042], for which the EC50 on human mGluR2 receptor was 200 nM. Same read-out and setting: next, `CC(C)CCn1ccc(N2CCCN(c3ccccc3)CC2)c(C#N)c1=O` [5-043]: 1000 nM; `COc1ccccc1N1CCCN(c2ccn(CCC(C)C)c(=O)c2C#N)CC1` [5-044]: 1000 nM; `Cc1onc(-c2ccccc2)c1COc1ccn(CCC(C)C)c(=O)c1C#N` [5-045]: 3980 nM. Take `N#Cc1c(C#Cc2ccncc2)ccn(CC2CCCCC2)c1=O` [5-049]: at human mGluR2 receptor, the EC50 is 1580 nM.
